Measurements: patent publication US8802731B2, “N-acetyl beta alanine methods of use” (ThermoLife International, LLC, priority 2011, dated 2014)

Key:
solubility in water = format: physicochemical; settings: found by applicants
[1] = solubility in organic solvents; format: physicochemical
subjects [2] = test: paresthesia after administration of N-acetyl beta alanine to subjects; format: in vivo, human
Excerpt: For the exemplary purposes of this disclosure, the Applicants have administered N-acetyl beta alanine to over 30 different subjects in doses ranging from 1 to even 10 grams.

well trained athletes = test: effects reported by well trained athletes given N-acetyl-beta alanine; format: in vivo, human; settings: 5 grams per day x1, 10 well trained athletes, self-report
Excerpt: For the exemplary purposes of this disclosure, the Applicants have also administered N-acetyl-beta alanine at a dose of 5 grams per day ×1 in 10 subjects, all of them well trained athletes that had in the past used beta alanine and were well aware of it's benefits. All of the subjects had not used beta alanine for at least a month. They were asked to report the effects of the “new beta alanine preparation” they were offered.

fructose-fed rats = settings: preliminary experiment; cited from earlier work
mice = settings: cited from earlier work
[3] = described (literature); cited from earlier work
elderly men and women = settings: cited from earlier work
[4] = single ingested dose; cited from earlier work
[5] = cited from earlier work
subjects [6] = settings: 10 weeks of resistance training with supplementation; cited from earlier work
[7] = cited from earlier work; remark: listed apart in the source
individuals = settings: cited from earlier work
[8] = system: experienced resistance-trained athletes; settings: four weeks of supplementation; cited from earlier work

In the case of `CC(=O)NCCC(=O)O` [N-acetyl beta alanine, 3-acetamidopropanoic acid], the solubility in water (solubility in water) is reported as 22 g/100 mL, the “solubility in water and organic solvents” value [1] is reported as “soluble in water and organic solvents” and the paresthesia (subjects [2]; large doses of 5+ grams) is reported as “no paresthesia observed”. For the same molecule, the “paresthesia or negative feelings described by users” value (subjects [2]; over 30 subjects, doses ranging from 1 to 10 grams) was “No paresthesia or negative feelings”, the “rate at which full benefits were exhibited” value (well trained athletes) was “full benefits were exhibited at a faster rate” and the “reported effectiveness compared with normal beta-alanine” value (well trained athletes) was “improved effectiveness over normal beta-alanine”.

In the case of `NCCC(=O)N[C@@H](Cc1cnc[nH]1)C(=O)O` [carnosine], the “diabetes-associated increase in blood pressure” value (fructose-fed rats) is given as “suppressed diabetes-associated increase in blood pressure”.

In the case of `NCCS(=O)(=O)O` [taurine], the “behavioral effect of supplemented diet” value (mice) is listed as “antidepressant-like effect”.

In the case of `NCCC(=O)O` [beta alanine, β-Alanine], the “behavioral effect of supplemented diet” value (mice) is given as “anxiolytic-like effect”, the water solubility [3] is given as 55-89 grams/100 ml and the “increase in physical working capacity fatigue threshold” value (elderly men and women; 800 mg x3 per day, elderly (55-92 years)) is given as 28%. The “physical working capacity / onset of neuromuscular fatigue” value (elderly men and women; ninety days of supplementation, elderly men and women) was “may increase physical working capacity by delaying the onset of neuromuscular fatigue”, the “single dose above which symptoms of paresthesia may be observed” value [4] was “higher than 800 mg” and the “maximal strength or VO2max” value ([5]; in vivo) was “does not improve maximal strength or VO2max”. For the same molecule, the “onset of neuromuscular fatigue” value ([5]; in vivo) was “delay the onset of neuromuscular fatigue”, the “performance in high-intensity exercise” value ([5]; multiple bouts of high-intensity exercise and single bouts lasting more than 60 s) was “improvements in performance” and the “increase in Muscle-Carnosine” value (subjects [6]) was 12.81+/−7.97 mmol×kg (−1) dry muscle. For the same molecule, the “acidosis due to exercise” value ([7]; 4.8 grams per day) was “can attenuate acidosis due to exercise”, the “fall in blood pH during high-intensity exercise” value ([7]; chronic supplementation) was “can attenuate the fall in blood pH” and the “aerobic capacity (VO2max)” value (individuals; post supplementation, 28 days) was “reduced aerobic capacity”. The “sub-maximal endurance performance (OBLA)” value (individuals; supplementation for 28 days) was “enhanced sub-maximal endurance performance by delaying OBLA” and the “muscular endurance during resistance training” value [8] was “can significantly improve muscular endurance”.
